Consider two molecules from US4399067A.

In brackets after ≈: the same amount, converted by molar mass. A value given as a limit tells only on which side of the number the result lay.

In series [1] the test system is Bacillus subtilis ATCC 6633. As to the kind of experiment: Agar-plate disc-diffusion test. The following applies: compound at 1 mg/ml, 7-mm disc, 24-48 hours at 25-37° C. The class given is cell-based. From the text: | ^b Grown on minimal nutrient agar
The next series relates to Staphylococcus aureus. As to the kind of experiment: In vivo activity against experimental bacterial infection in mice. The conditions noted are these: two doses, dose protecting fifty percent of the test animals.
Series [2] in a line: Acute toxicity, intravenous, mice. The following applies: mouse, in vivo, administered intravenously to mice.
In series [3] the test system is Staphylococcus aureus V41. In kind it is cell-based. The conditions noted are these: agar-dilution; penicillin-resistant strain. The text has this: (§1) The results of the antibacterial testing of a representative compound of formula 1, using the standard agar-dilution test, are summarized in Table II.
^b Pencillinresistant strain

A further series concerns Streptococcus pyogenes. As to the kind of experiment: In vivo activity against experimental bacterial infection in mice. The conditions noted are these: two doses, dose protecting fifty percent of the test animals.
Series [4] deals with Staphylococcus aureus X1.1. The class given is cell-based. The following applies: agar-dilution.
Description: as §1

In series [5] the test system is Staphylococcus epidermidis EPI2. The class given is cell-based. The following applies: agar-dilution.
Description: as §1

The next series deals with Streptococcus Group 9960. In kind it is cell-based. The conditions noted are these: agar-dilution.
Description: as §1

Series [6] has as its system Streptococcus pyogenes C203. In kind it is cell-based. The following applies: agar-dilution.
Description: as §1

In series [7] the test system is Streptococcus Group D X66. The class given is cell-based. The conditions noted are these: agar-dilution.
Description: as §1

For series [8], the system named is Staphylococcus epidermidis EPI1. In kind it is cell-based. The conditions noted are these: agar-dilution.
Description: as §1

Series [9] concerns Staphylococcus aureus X400. In kind it is cell-based. The following applies: agar-dilution; methicillin-resistant strain.
Description: as §1
^c Methicillinresistant-strain

`CCCCCCCCCCCCOc1ccc(C(=O)N[C@@H](Cc2c[nH]c3ccccc23)C(=O)N[C@@H](CC(N)=O)C(=O)N[C@@H](CC(=O)O)C(=O)N[C@@H]2C(=O)NCC(=O)N[C@@H](CCCNC(=O)OC(C)(C)C)C(=O)N[C@@H](CC(=O)O)C(=O)N[C@H](C)C(=O)N[C@@H](CC(=O)O)C(=O)NCC(=O)N[C@H](CO)C(=O)N[C@@H]([C@H](C)CC(=O)O)C(=O)N[C@@H](CC(=O)c3ccccc3N)C(=O)O[C@@H]2C)cc1` [Example 1]: in [1], the “Size of Zone of Inhibition, B. subtilis ATCC 6633 grown on minimal nutrient agar” value is on record as 22 mm.
Take `CCCCCCCCCCCCOc1ccc(C(=O)N[C@@H](Cc2c[nH]c3ccccc23)C(=O)N[C@@H](CC(N)=O)C(=O)N[C@@H](CC(=O)O)C(=O)N[C@@H]2C(=O)NCC(=O)N[C@@H](CCCN)C(=O)N[C@@H](CC(=O)O)C(=O)N[C@H](C)C(=O)N[C@@H](CC(=O)O)C(=O)NCC(=O)N[C@H](CO)C(=O)N[C@@H]([C@H](C)CC(=O)O)C(=O)N[C@@H](CC(=O)c3ccccc3N)C(=O)O[C@@H]2C)cc1` [Example 2, NTrp -p-(n-dodecyloxy)benzoyl-A-21978C Nucleus]: in the series with Staphylococcus aureus, the “ED50, Staphylococcus aureus, Subcutaneous” value amounted to 3.35 mg/kg × 2. Besides, the “Size of Zone of Inhibition, B. subtilis ATCC 6633 grown on minimal nutrient agar” value in [1] stood at 20 mm. In series [2], the LD50 worked out at 67.5 mg/kg. Besides, the “MIC, Staphylococcus aureus V41” value in series [3] was found to be 1 µg/mL (≈ 0.57 µM). For the same molecule, the “ED50, Streptococcus pyogenes, Oral” value in the series with Streptococcus pyogenes (oral) is reported as above 200 mg/kg × 2. Further, the “ED50, Streptococcus pyogenes, Subcutaneous” value in the series on Streptococcus pyogenes (subcutaneous) was determined as 0.31 mg/kg × 2. Moreover, in series [4], the “MIC, Staphylococcus aureus X1.1” value was found to be 1 µg/mL (≈ 0.57 µM). The “MIC, Staphylococcus epidermidis EPI2” value in series [5] came to 2 µg/mL (≈ 1.14 µM). In addition, the “MIC, Streptococcus Group 9960” value against Streptococcus Group 9960 worked out at 1 µg/mL (≈ 0.57 µM). Further, in series [6], the “MIC, Streptococcus pyogenes C203” value came to 0.25 µg/mL (≈ 0.142 µM). In series [7], the “MIC, Streptococcus Group D X66” value was 2 µg/mL (≈ 1.14 µM). In addition, the “MIC, Staphylococcus epidermidis EPI1” value in series [8] amounted to 4 µg/mL (≈ 2.28 µM). The “MIC, Staphylococcus aureus X400” value in series [9] worked out at 2 µg/mL (≈ 1.14 µM).
